The compound `Cc1c(Cl)cc(C=O)c(O)c1Cl` returned a melting point of 94 to 95.1 °C.

`O=C(OCCOCn1cnc2c(Cl)nc(Cl)nc21)c1ccccc1`: the melting point fell in the range of 121 to 125 °C.

`Cc1ccc2c(=O)c3cc(C(F)(F)F)ccc3sc2c1` showed a melting point of 174 to 178 °C.

`O=[N+]([O-])C(CN1CCOCC1)=C1NCCCS1`: the melting point lay within 131 to 132 °C.

Consider `CSc1nc2ccc(C(F)(F)F)cc2[nH]1`, for which the melting point fell in the range of 145 to 146 °C.

`NC(=O)CNC(=O)c1cccc(-c2ccc(F)c3cc(Cc4cccc(C(F)(F)F)c4)sc23)c1` came in with a melting point of 157 to 158 °C.

On to `Cc1[nH]c2ccc(S(=O)(=O)c3ccccc3)cc2c1CCNC(=O)OC(C)(C)C`, for which the melting point was in the range of 210 to 213 °C.

`O=C(NC1CC1)c1cccc2c1CC(NC1CC1)CO2` (centres undefined) gave a melting point of 126 to 127 °C.

`Cc1ccc(F)cc1C(=O)Nc1ccc(C(=O)N2CCc3cn[nH]c3-c3sccc32)cc1` registered a melting point of 310 to 312 °C.

As for `C=CCCO[C@@H](Cc1ccc(OCCc2nc(-c3ccc(C(C)C)cc3)oc2C)c2ccsc12)C(=O)O`, the melting point was 124 to 126 °C.

Take `CC1(C)COC(=O)N1c1nc(-c2ccc(Cl)c(F)c2)cs1`: the melting point fell in the range of 140 to 142 °C.

Compound `COc1ccc2c3c(c(=O)oc2c1)CN(CC(C)=O)CC3` registered a melting point of 123 to 125 °C.

In the case of `COC(=O)c1ccc2c(c1)C(=O)C(C=C1C=CC=C(C(=O)O)C1)O2` (centres undefined), the melting point was determined as 280 °C.

`CC(=O)c1cc(-c2ccc(C(F)(F)F)cc2)oc1C` displayed a melting point of 87 to 88 °C.

In turn, `Cc1ccc2[nH]c(=O)n(CCS)c(=O)c2c1` yielded a melting point of 309 to 311 °C.

Take `CCCCCc1ccccc1C=CC=C1SC(=S)N(CC(=O)O)C1=O`: the melting point fell in the range of 203 to 207 °C.

As for `COc1cccc(Cc2cc(-c3ccccc3)c(-c3ccccc3)s2)c1`, the melting point is 100 to 102 °C.

In turn, `Cc1noc(-c2cccc(I)c2)n1` registered a melting point of 102 to 103 °C.

Compound `COc1ccc(S(=O)(=O)N2C(=O)C(=O)c3cc(Cl)ccc32)c(OC)c1` displayed a melting point of 194 °C.

The compound `N#Cc1cc(Cl)cc(Oc2ccc(CC(=O)Nc3ccc(S(N)(=O)=O)cc3Cl)cc2Br)c1` had a melting point of 205 to 207 °C.

`Cc1ccccc1C(=O)C=CC(=O)O` gave a melting point of 82 to 83 °C.

The compound `O=c1c(Cl)c(-c2ccncn2)nc2n1CCCN2C[C@@H](O)c1ccccc1` gave a melting point of 158 to 160 °C.

The compound `OCC1COC(Cc2nc[nH]n2)(c2ccc(Cl)cc2)O1` (centres undefined) registered a melting point of 115 to 117 °C.

Turning to `Cc1nc(-c2ccc(OCCCc3ccccc3)cc2)no1`, the melting point lay in the range of 78.5 to 79 °C.

Compound `COc1cc(OC)c(C(=O)/C=C/C(=O)O)c(OC)c1` gave a melting point of 151 to 153 °C.

With `CCc1nc(Cl)c(C(=O)N(C)CC)n1Cc1ccc2oc(-c3ccccc3NC(=O)OC(C)(C)C)c(Br)c2c1`, the melting point fell in the range of 95 to 96 °C.

Compound `CC(=O)Nc1cc2c(cc1[N+](=O)[O-])OC(C)(C)[C@@H](O)[C@@H]2N1CCCC1=O` (relative stereo) yielded a melting point of 240 to 241 °C.

The compound `CCOC(=O)c1cnc2c(N)c(Cl)c(F)cc2c1O` came in with a melting point of 268 to 270 °C.

`COc1ccc2c(c1)S(=O)(=O)c1c(cc(OC)c(OC(C)=O)c1Br)N2` displayed a melting point of 258 to 260 °C.

`CN(C(=O)Nc1ccccc1)c1cccc(-c2ccc(CC3SC(=O)NC3=O)cc2)c1` (centres undefined) showed a melting point of 183 °C.

Consider `CCN(CCOc1cccnc1[N+](=O)[O-])CCN1C(=O)c2ccccc2C1=O`, for which the melting point was 124 to 126 °C.

Take `N#CCc1cc(Br)cc(Cc2nc3c(F)c(F)cc(F)c3s2)c1`: the melting point lay within 119 to 124 °C.

`N#CCC=Cc1ccc(Cc2ccc(C=CCC#N)cc2)cc1` registered a melting point of 128 to 130 °C.

Regarding `Cc1ccc(C2=NCCc3c(Cl)cccc32)cc1`, the melting point was 82.7 to 83.4 °C.

Take `Cc1c(I)nc2n1CCc1ccccc1C2OC1CCN(C)CC1` (centres undefined): the melting point is 59 °C.

In turn, `CNc1cncc(C(F)(F)F)c1` displayed a melting point of 69 to 70 °C.

`CS(=O)(=O)c1cccc(CNC(=O)c2nc3scc(COCc4ccc(C(=O)O)cc4)c3c(=O)[nH]2)c1` returned a melting point of 265 to 267 °C.

For `COC(=O)P(=O)(OC)OC`, the melting point was 150 °C.

In the case of `COc1ccc(F)cc1C(C)(C)CC(O)(Cc1cccc(C(N)=O)c1)C(F)(F)F` (centres undefined), the melting point is 70 to 75 °C.

Turning to `CN(C)CC#CCNC(=O)C(O)(c1ccccc1)C1CCCCC1` (single isomer, unassigned; (-)), the melting point fell in the range of 120 to 121 °C.

`CCOC(=O)c1cc2c3n(ccc-2n1)C(Br)C(C)=N3` (centres undefined) registered a melting point of 224 to 226 °C.

With `Cc1ccc(CCOc2ccnc3c(OCCc4ccc(C)cc4)cccc23)cc1`, the melting point fell in the range of 142 to 143 °C.

`O=S(=O)(Nc1ccc(OCc2ccc3ccccc3n2)cc1)c1c(F)c(F)c(F)c(F)c1F`: the melting point is 170 to 178 °C.

`COC=C1C(=O)N(OCc2ccccc2)C(=O)c2ccccc21` gave a melting point of 161 to 162 °C.

Regarding `CC12CCC3c4cc([N+](=O)[O-])c(O)cc4CCC3C1CCC2=O` (centres undefined), the melting point lay in the range of 178 to 180 °C.

Regarding `O=C1N(CO)CCN1C(c1ccccc1)c1ccccc1`, the melting point was 134 °C.

As to `c1ccc(NN2CCc3ccccc3C2)nc1`, the melting point fell in the range of 116 to 117 °C.

As to `NCC(O)c1nn(Cc2ccccc2)c2ccccc12` (centres undefined), the melting point is 126 °C.

The compound `Cc1c(Cc2cc(Cl)cc(Cl)c2)c(C(F)(F)F)nn1CCO` showed a melting point of 91 to 93 °C.

In turn, `O=C(Nc1ccc2c(c1)CCC(CCl)=C2)c1ccc(-c2ccc(Cl)cc2)cc1` yielded a melting point of 179 to 181 °C.

The compound `CC1(C)C(=O)N(c2ccc(C#N)c(C(F)(F)F)c2)C(=O)N1CCCCO[N+](=O)[O-]` yielded a melting point of 74 to 75 °C.

`Cc1cccc(C(C)C)c1NC(=O)CCCCCBr` yielded a melting point of 66 to 67 °C.

`O=C1CC(C(F)(F)F)CC(=O)N1c1cc(OS(=O)(=O)c2ccccc2)c(Cl)cc1F` showed a melting point of 214 to 215 °C.

The compound `O=C(Cl)C=Cc1ccc(Cl)cc1` displayed a melting point of 78 to 80 °C.

`CNC(=O)C(=NOC)c1ccccc1ON=C(C)c1cccc(C)c1`: the melting point lay in the range of 109 to 111 °C.

`CCOC(=O)C1CC1c1cc(=O)c2ccc3ccccc3c2o1` (centres undefined) yielded a melting point of 106 °C.

Regarding `Nc1nc2c(Cc3ccsc3)c(I)[nH]c2c(=O)[nH]1`, the melting point is > 260 °C.

As for `Cc1nc2cc3c(cc2c(=O)[nH]1)OCCO3`, the melting point was found to be 275 °C.

On to `CCCC(C)S(=O)(=O)Nc1ccc(C(=O)CN2CCN(c3ccncc3)CC2)cc1` (centres undefined), for which the melting point fell in the range of 101 to 103 °C.

In turn, `CC1(C)Cc2cc(Br)cc(O)c2O1` had a melting point of 70 °C.

As to `CC[C@@H](c1ccccc1)N(Cc1ccc(C(=O)O)c(F)c1)S(=O)(=O)c1ccc(Cl)cc1`, the melting point fell in the range of 95 to 97 °C.

The compound `CNCCOc1ccc2ccc(NC(=O)c3ccc(OC)cc3)nc2n1` came in with a melting point of 146 °C.

As for `Cc1c[nH]c2c(NC(=O)c3c(Cl)cccc3Cl)cccc2c1=O`, the melting point was > 300 °C.

Consider `Cc1cc2c(CN3CCC(C)CC3)c(CO)c(Cl)nc2cc1Cl`, for which the melting point lay in the range of 170 to 172 °C.

Compound `C=CCOC(=O)c1ccc(COC(=O)Nc2cnc(-c3ccccc3)n(CC(=O)NC(Cc3ccccc3)C(O)C(F)(F)F)c2=O)cc1` (centres undefined) showed a melting point of 126 to 135 °C.

With `CC(=O)c1ccc(F)c(S(N)(=O)=O)c1`, the melting point is 135 °C.

With `O=C(Cn1c(=O)n(S(=O)(=O)c2ccc(Cl)cc2)c(=O)c2ccc(Cl)cc21)Nc1ccccc1`, the melting point was in the range of 217 to 218 °C.

For `ON=C1CCn2c(-c3ccccc3)nc3c(Cl)ccc1c32`, the melting point fell in the range of 251 to 252 °C.

`CC(C)(C(=O)O)c1ccc(CCNS(=O)(=O)c2ccccc2)cc1`: the melting point is 86 to 88 °C.

`FC(F)(F)c1nc2cnc3ccccc3c2s1` had a melting point of 113 to 114 °C.

On to `Nc1cccc(Nc2ncnc3[nH]cc(C(=O)c4ccccc4)c23)c1`, for which the melting point lay in the range of 280 to 282 °C.

Turning to `CCS(=O)c1cc2c(c3c1OC(C)(C)C3)C(c1ccccc1)=NC(C)(C)C2` (centres undefined), the melting point fell in the range of 146 to 147 °C.

In turn, `COc1cc(-c2nc(-c3ccc(N(C)C)cc3)c(C)s2)cc(OC)c1O` had a melting point of 230 to 233 °C.

In turn, `Cc1ccn2c(CN(C)C)c(-c3ccc4sc(=O)n(C)c4c3)nc2c1` came in with a melting point of 167 to 168 °C.

For the compound `Cn1ccnc1SCOC(=O)C(C)(C)C`, the melting point fell in the range of 128 to 132 °C.

In turn, `CN(CCCN1C(=O)c2cccc3cc4ccccc4c(c23)C1=O)CCCN1C(=O)c2cccc3cc4ccccc4c(c23)C1=O` registered a melting point of 194 °C.

Consider `CCC1(CCI)C(=O)N2CC=CC(C(=O)OC)N2C1=O` (centres undefined), for which the melting point is 95 to 97 °C.

`CC(C)COc1ccc(-c2nc3cccc(C(=O)O)c3s2)cc1C#N` registered a melting point of 268 to 270 °C.

In turn, `C=Cc1ccc(Nc2nc(Cl)nc(Cl)c2Cl)cc1` showed a melting point of 112 to 114 °C.

On to `O=C(Nc1ccc2cc(CN3CCC(CO)CC3)cnc2c1)c1ccc(-c2ccc(F)cc2)cc1`, for which the melting point was 191 to 195 °C.

In turn, `CCC[C@H](NC(=O)/C=C/S(=O)(=O)c1ccccc1)C(=S)OC` registered a melting point of 131 to 132 °C.

For the compound `CCOC(=O)C(OCc1ccc(-c2ccc(Cl)cc2)cc1)c1ccccc1` (centres undefined), the melting point lay within 50 to 51 °C.

Turning to `COC1=C(OC)C(=O)C2=C(CCC(CCOc3ccc(-c4ccccc4)cc3)CC2)C1=O`, the melting point fell in the range of 109 to 112 °C.

Take `Cc1cc2c(cc1Cl)C(c1ccccc1)(N1CCOCC1)ON2C(C)(C)C` (centres undefined): the melting point lay within 131 to 133 °C.

Consider `N#Cc1c(N2CCN(C(=O)c3cccs3)CC2)c2cc(F)cnc2[nH]c1=O`, for which the melting point was 244 °C.

On to `CC(CCc1ccc(N(C)C)cc1)NCC(O)c1sccc1C(N)=O` (centres undefined), for which the melting point lay within 118 to 121 °C.

Regarding `Cc1ccc(C(=O)Oc2ccc3c(OC(=O)c4ccc(C)c(O)c4)c4ccccc4cc3c2OC(=O)c2ccc(C)c(O)c2)cc1O`, the melting point is 251 °C.

`COc1nn(-c2ccnc(N[C@H]3CC[C@H](O)CC3)n2)c2ccccc12` showed a melting point of 202 to 205 °C.

On to `Cc1cc(Cl)nc(N(C=O)c2ccccc2)n1`, for which the melting point lay in the range of 150 to 152 °C.

In general, melting point refers to the temperature of the solid-liquid transition.

Source of the values: a melting point compilation (Tetko et al.; mined from patent text by program, amines drawn as free bases though some values may be those of a salt).
